# In patent US20260373135A1, “Methods of Treatment with Tradipitant” (Vanda Pharmaceuticals Inc., priority 2022, published 2026):
# Read-outs that look alike come from different tables or passages of the source.
# Test: Four-period, two-way crossover open label single-dose food-effect pharmacokinetic study of tradipitant capsules in healthy participants (plasma tradipitant and metabolites M2, M3, M4, M8)
# Type: in vivo, human
# Settings: for AUC(0-t), Least Squares Geometric Mean Ratio (%), Estimate / AUC(inf), Least Squares Geometric Mean Ratio (%), Estimate / Cmax, Least Squares Geometric Mean Ratio (%), Estimate: fed/fasted; for Tmax / AUC(0-t) / AUC(0-inf) / Cmax: plasma; for Tmax: median; for AUC(inf) Ratio of geometric means (170 mg / 85 mg) / Cmax Ratio of geometric means (170 mg / 85 mg): 85 mg vs 170 mg tradipitant
# Procedure: To evaluate the pharmacokinetics and effect of food on the bioavailability of single-dose capsules containing 170 mg tradipitant and 85 mg tradipitant, an open label, four-period, two-way crossover study is performed. The study comprises two cohorts, each of which conducts a screening phase and an evaluation phase. Cohort 1 only conducts Period 1 and Period 2 (FIG. 5), while Cohort 2 only conducts Period 3 and Period 4 (FIG. 6). It is possible for a participant in Cohort 1 to be a Participant in Cohort 2.
# The screening phase (Day-21 to Day-2, FIGS. 5-6) consists of a screening visit wherein an informed consent is obtained from potential participants, and their eligibility is initially assessed based on vital signs, body measurements, physical examination, ECG, clinical laboratory tests, drug and alcohol screen, and medical history. Clinical laboratory testing includes a pharmacogenetics sample for whole genome sequencing. Participants may include men or women aged 18-55 years, inclusive at the time of screening; having a Body Mass Index (BMI) of ≥18.0 and ≤39.0 kg/m^2 (BMI=weight (kg)/[height (m)]^2); and female participants of childbearing potential must be non-pregnant and non-lactating. Participants must be in good health as determined by a medical and psychiatric history, physical examination, electrocardiogram, and serum chemistry and hematology; willing to comply with study procedures and restrictions; willing to provide a pharmacogenetic sample; and have negative test result for selected substances of abuse at screening. Individuals may be excluded from participating based on history (within the 12 months prior to screening) of psychiatric disorders; current clinically significant cardiovascular, respiratory, neurologic, hepatic, hematopoietic, renal, gastrointestinal, or metabolic dysfunction unless currently controlled and stable; history of intolerance and/or hypersensitivity to other NK-1 receptor antagonists; clinically significant deviation from normal in clinical laboratory results, vital signs measurements, or physical examination findings at screening as determined by the clinical investigator; major surgery, trauma (including broken pelvis/legs), illness (e.g. sepsis), or immobility for 3 or more days within the past month; active cancer or cancer treatment within the past 6 months prior to screening; central venous catheter in place or within the past month; impaired liver function indicated by AST, ALT, or bilirubin >2 times the upper limit of normal, unless there is an isolated bilirubin >2 times the upper limit of normal due to Gilbert's syndrome; pregnancy or recent pregnancy (within 6 weeks prior to screening) or women who are breastfeeding; history of drug or alcohol abuse as defined in DSM-V, Diagnostic Criteria for Drug and Alcohol Abuse, within the 12 months prior to screening and/or regular consumption of alcoholic drinks (>2 drinks/day or >14 drinks/week); randomization in a previous tradipitant trial; and participants at risk of suicide, in the opinion of the Investigator. […]
# [1] = fasted conditions, 85 mg vs 170 mg
compound,measurement,setting,value
"O=C(c1ccccc1Cl)c1cccnc1-c1nnn(Cc2cc(C(F)(F)F)cc(C(F)(F)F)c2)c1-c1ccncc1 [tradipitant, {2-[1-(3,5-Bistrifluoromethylbenzyl)-5-pyridin-4-yl-1H-[1,2,3]triazol-4-yl]-pyridin-3-yl}-(2-chlorophenyl)-methanone]",increase in Tmax in the fed state,"85 mg tradipitant oral, fed vs fasted",2 fold
same,"AUC(0-t), Least Squares Geometric Mean Ratio (%), Estimate",85 mg tradipitant oral,234.21%
same,"AUC(inf), Least Squares Geometric Mean Ratio (%), Estimate",85 mg tradipitant oral,263.08%
same,"Cmax, Least Squares Geometric Mean Ratio (%), Estimate",85 mg tradipitant oral,437.59%
same,"Cmax, Least Squares Geometric Mean Ratio (%), Estimate","85 mg tradipitant oral, listed as Tradipitant",473.59%
same,Tmax,"170 mg tradipitant oral, fasted",1.50 (15) hr
same,"AUC(0-t), Least Squares Geometric Mean Ratio (%), Estimate",170 mg tradipitant oral,328.21%
same,"AUC(inf), Least Squares Geometric Mean Ratio (%), Estimate",170 mg tradipitant oral,381.70%
same,"Cmax, Least Squares Geometric Mean Ratio (%), Estimate",170 mg tradipitant oral,703.87%
same,Tmax,"170 mg tradipitant oral, fed",4.00 (15) hr
same,dose proportionality of AUC(inf),[1],close to dose proportional
same,dose proportionality of Cmax,[1],less than dose proportionality
same,AUC(inf) Ratio of geometric means (170 mg / 85 mg),fasted conditions,1.92
same,Cmax Ratio of geometric means (170 mg / 85 mg),fasted conditions,1.32
same,AUC(inf) Ratio of geometric means (170 mg / 85 mg),fed conditions,2.30
same,Cmax Ratio of geometric means (170 mg / 85 mg),fed conditions,1.93
same,"effect of fed state on absorption (extent/rate, Tmax)","fed vs fasted, both 170 mg and 85 mg doses",an increase in the extent and a decrease in the rate of absorption
same,AUC(0-t),"human, po, 85 mg, 85 mg tradipitant oral, fasted, ln-transformed, read-out: AUC(0-t), Least Squares Geometric Mean, Fasted",1650 ng·h/mL
same,AUC(0-inf),"human, po, 85 mg, 85 mg tradipitant oral, fasted, ln-transformed, read-out: AUC(inf), Least Squares Geometric Mean, Fasted",1790 ng·h/mL
same,Cmax,"human, po, 85 mg, 85 mg tradipitant oral, fasted, ln-transformed, read-out: Cmax, Least Squares Geometric Mean, Fasted",84.7 ng/mL
same,AUC(0-inf),"human, po, 85 mg, 85 mg tradipitant oral, fasted, geometric mean [geometric % CV], read-out: AUC(inf)",1840 ng·h/mL
same,Cmax,"human, po, 85 mg, 85 mg tradipitant oral, fasted, geometric mean [geometric % CV], read-out: Cmax",84.7 ng/mL
same,Tmax,"human, po, 85 mg, 85 mg tradipitant oral, fasted, read-out: Tmax",2 h
same,AUC(0-t),"human, po, 85 mg, 85 mg tradipitant oral, fed, ln-transformed, read-out: AUC(0-t), Least Squares Geometric Mean, Fed",3860 ng·h/mL
same,AUC(0-inf),"human, po, 85 mg, 85 mg tradipitant oral, fed, ln-transformed, read-out: AUC(inf), Least Squares Geometric Mean, Fed",4700 ng·h/mL
same,Cmax,"human, po, 85 mg, 85 mg tradipitant oral, fed, ln-transformed, read-out: Cmax, Least Squares Geometric Mean, Fed",401 ng/mL
same,AUC(0-inf),"human, po, 85 mg, 85 mg tradipitant oral, fed, geometric mean [geometric % CV], read-out: AUC(inf)",4520 ng·h/mL
same,Cmax,"human, po, 85 mg, 85 mg tradipitant oral, fed, geometric mean [geometric % CV], read-out: Cmax",401 ng/mL
same,Tmax,"human, po, 85 mg, 85 mg tradipitant oral, fed, read-out: Tmax",4 h
same,AUC(0-t),"human, po, 170 mg, 170 mg tradipitant oral, fasted, ln-transformed, read-out: AUC(0-t), Least Squares Geometric Mean, Fasted",2800 ng·h/mL
same,AUC(0-inf),"human, po, 170 mg, 170 mg tradipitant oral, fasted, ln-transformed, read-out: AUC(inf), Least Squares Geometric Mean, Fasted",2730 ng·h/mL
same,Cmax,"human, po, 170 mg, 170 mg tradipitant oral, fasted, ln-transformed, read-out: Cmax, Least Squares Geometric Mean, Fasted",111 ng/mL
same,AUC(0-inf),"human, po, 170 mg, 170 mg tradipitant oral, fasted, geometric mean [geometric % CV], read-out: AUC(inf)",3530 ng·h/mL
same,Cmax,"human, po, 170 mg, 170 mg tradipitant oral, fasted, geometric mean [geometric % CV], read-out: Cmax",112 ng/mL
same,Tmax,"human, po, 170 mg, 170 mg tradipitant oral, fasted, read-out: Tmax",1.5 h
same,AUC(0-t),"human, po, 170 mg, 170 mg tradipitant oral, fed, ln-transformed, read-out: AUC(0-t), Least Squares Geometric Mean, Fed",9180 ng·h/mL
same,AUC(0-inf),"human, po, 170 mg, 170 mg tradipitant oral, fed, ln-transformed, read-out: AUC(inf), Least Squares Geometric Mean, Fed",10400 ng·h/mL
same,Cmax,"human, po, 170 mg, 170 mg tradipitant oral, fed, ln-transformed, read-out: Cmax, Least Squares Geometric Mean, Fed",778 ng/mL
same,AUC(0-inf),"human, po, 170 mg, 170 mg tradipitant oral, fed, geometric mean [geometric % CV], read-out: AUC(inf)",10400 ng·h/mL
same,Cmax,"human, po, 170 mg, 170 mg tradipitant oral, fed, geometric mean [geometric % CV], read-out: Cmax",774 ng/mL
same,Tmax,"human, po, 170 mg, 170 mg tradipitant oral, fed, read-out: Tmax",4 h
